According to the CheMixHub viscosity set:

Experiment: xn = mol fraction of the nth substance listed

CC[N+](CC)(CC)CC.[OH-] + CS(C)=O
viscosity [mPa·s], 100 kPa
Details | 298.15 K | 303.15 K | 308.15 K | 313.15 K
x1 = 0.0142 | 2.08 | 1.9 | 1.77 | 1.67
x1 = 0.0405 | 2.24 | 2.07 | 1.96 | 1.88
x1 = 0.0693 | 2.45 | 2.29 | 2.18 | 2.09
x1 = 0.0995 | 2.65 | 2.49 | 2.38 | 2.29
x1 = 0.1314 | 2.89 | 2.72 | 2.62 | 2.52
x1 = 0.165 | 3.11 | 2.95 | 2.84 | 2.76
x1 = 0.1925 | 3.29 | 3.12 | 3 | 2.92
x1 = 0.2381 | 3.57 | 3.41 | 3.3 | 3.24
x1 = 0.2988 | 3.9 | 3.75 | 3.66 | 3.58
x1 = 0.3654 | 4.23 | 4.1 | 4 | 3.95
x1 = 0.4134 | 4.45 | 4.34 | 4.22 | 4.18
x1 = 0.4647 | 4.66 | 4.56 | 4.45 | 4.41
x1 = 0.5486 | 4.94 | 4.85 | 4.73 | 4.71
x1 = 0.6421 | 5.17 | 5.08 | 4.96 | 4.92
x1 = 0.7106 | 5.37 | 5.17 | 5.02 | 5
x1 = 0.7848 | 5.3 | 5.2 | 5.03 | 4.99
x1 = 0.8653 | 5.23 | 5.12 | 4.96 | 4.89
x1 = 0.9531 | 5.08 | 4.89 | 4.67 | 4.54

CCCCBr + Cc1cc(C)cc(C)c1
308.15 K, 101 kPa
Details | viscosity [mPa·s]
x2 = 0.0991 | 0.5234
x2 = 0.1968 | 0.5242
x2 = 0.3043 | 0.5299
x2 = 0.406 | 0.5323
x2 = 0.4969 | 0.5372
x2 = 0.5975 | 0.5416
x2 = 0.7014 | 0.5482
x2 = 0.7972 | 0.5513
x2 = 0.8984 | 0.5568

CCCC(C)O (stereo not given) + Cc1ccccc1
viscosity [mPa·s], 101 kPa
Details | x1 = 0.1002 | x1 = 0.1998 | x1 = 0.2999 | x1 = 0.3994 | x1 = 0.5004 | x1 = 0.6006 | x1 = 0.6993 | x1 = 0.8004 | x1 = 0.8998
303.15 K | 0.5378 | 0.5727 | 0.629 | 0.6912 | 0.7892 | 0.9188 | 1.129 | 1.428 | 1.926
308.15 K | 0.5072 | 0.5384 | 0.5879 | 0.6416 | 0.7284 | 0.836 | 1.012 | 1.259 | 1.656
313.15 K | 0.4802 | 0.5063 | 0.5503 | 0.5965 | 0.6696 | 0.7628 | 0.9099 | 1.114 | 1.435
318.15 K | 0.4548 | 0.4776 | 0.517 | 0.5583 | 0.6236 | 0.7009 | 0.8268 | 0.9944 | 1.26
323.15 K | 0.4322 | 0.4524 | 0.4862 | 0.5226 | 0.5786 | 0.6466 | 0.7539 | 0.8904 | 1.11

COCCO + Cc1ccccc1
viscosity [mPa·s]
Details | 298.15 K | 303.15 K | 308.15 K
101 kPa, x1 = 0.0586 | 0.571 | – | 0.512
101 kPa, x1 = 0.1696 | 0.617 | – | 0.545
101 kPa, x1 = 0.2421 | 0.654 | – | 0.571
101 kPa, x1 = 0.3513 | 0.719 | – | 0.618
101 kPa, x1 = 0.4555 | 0.796 | – | 0.674
101 kPa, x1 = 0.4987 | 0.833 | – | 0.7
101 kPa, x1 = 0.5515 | 0.882 | – | 0.736
101 kPa, x1 = 0.6515 | 0.99 | – | 0.814
101 kPa, x1 = 0.7487 | 1.118 | – | 0.905
101 kPa, x1 = 0.8495 | 1.279 | – | 1.021
101 kPa, x1 = 0.9558 | 1.49 | – | 1.17
101.33 kPa, x1 = 0.1311 | – | 0.566 | –
101.33 kPa, x1 = 0.2283 | – | 0.608 | –
101.33 kPa, x1 = 0.3137 | – | 0.645 | –
101.33 kPa, x1 = 0.4277 | – | 0.716 | –
101.33 kPa, x1 = 0.5253 | – | 0.784 | –
101.33 kPa, x1 = 0.6244 | – | 0.87 | –
101.33 kPa, x1 = 0.7116 | – | 0.954 | –
101.33 kPa, x1 = 0.8018 | – | 1.057 | –
101.33 kPa, x1 = 0.9149 | – | 1.219 | –

CCCC(=O)O + C1COCO1
298.15 K, 101 kPa
Details | viscosity [mPa·s]
x2 = 0.2292 | 1.358
x2 = 0.3376 | 1.288
x2 = 0.5433 | 1.098
x2 = 0.6408 | 0.9928
x2 = 0.7351 | 0.8845
x2 = 0.8263 | 0.7758
x2 = 0.9146 | 0.6775

COCCO + OCCO
viscosity [mPa·s], 101 kPa
Details | x2 = 0.1359 | x2 = 0.2614 | x2 = 0.3776 | x2 = 0.4859 | x2 = 0.5861 | x2 = 0.6799 | x2 = 0.7676 | x2 = 0.8499 | x2 = 0.9272
293.15 K | 2.281 | 3.192 | 3.871 | 5.319 | 6.607 | 8.77 | 10.8 | 14 | 17.35
298.15 K | 2.034 | 2.799 | 3.383 | 4.577 | 5.633 | 7.281 | 9.021 | 11.5 | 14.18
303.15 K | 1.826 | 2.471 | 2.981 | 3.965 | 4.84 | 6.282 | 7.583 | 9.579 | 11.66
308.15 K | 1.652 | 2.2 | 2.644 | 3.468 | 4.194 | 5.372 | 6.436 | 8.035 | 9.727
313.15 K | 1.494 | 1.97 | 2.364 | 3.051 | 3.663 | 4.643 | 5.522 | 6.84 | 8.193
318.15 K | 1.359 | 1.775 | 2.14 | 2.718 | 3.218 | 4.04 | 4.701 | 5.855 | 6.98
323.15 K | 1.241 | 1.604 | 1.938 | 2.399 | 2.851 | 3.547 | 4.102 | 5.049 | 5.979

CCCCNCCCC + ClCCl
298.15 K, 101.3 kPa
Details | viscosity [mPa·s]
x1 = 0.0995 | 0.494
x1 = 0.2125 | 0.55
x1 = 0.299 | 0.59
x1 = 0.3913 | 0.633
x1 = 0.4338 | 0.655
x1 = 0.6097 | 0.719
x1 = 0.6782 | 0.74
x1 = 0.807 | 0.768
x1 = 0.8865 | 0.787

COCCO + CCCCCCO
viscosity [mPa·s], 101 kPa
Details | x1 = 0.1298 | x1 = 0.2513 | x1 = 0.3653 | x1 = 0.4723 | x1 = 0.5731 | x1 = 0.6682 | x1 = 0.758 | x1 = 0.843 | x1 = 0.9236
298.15 K | 3.765 | 3.225 | 2.811 | 2.458 | 2.25 | 2.076 | 1.94 | 1.815 | 1.707
308.15 K | 2.612 | 2.233 | 2.027 | 1.815 | 1.667 | 1.487 | 1.356 | 1.303 | 1.273
318.15 K | 2.193 | 1.908 | 1.648 | 1.477 | 1.356 | 1.278 | 1.211 | 1.129 | 1.083

C1CCNCC1 + O
viscosity [mPa·s], 101 kPa
Details | x1 = 0.05 | x1 = 0.1 | x1 = 0.2 | x1 = 0.3 | x1 = 0.35 | x1 = 0.4 | x1 = 0.6 | x1 = 0.8
298.15 K | 1.9 | 3.06 | 4.76 | 5.4 | 5.42 | 5.13 | 3.38 | 2.05
323.15 K | 0.887 | 1.26 | 1.77 | 1.94 | 1.94 | 1.86 | 1.38 | 0.993

CCCCBr + C1CCCCC1
308.15 K, 101 kPa
Details | viscosity [mPa·s]
x2 = 0.1017 | 0.5246
x2 = 0.2037 | 0.5305
x2 = 0.3038 | 0.5365
x2 = 0.4015 | 0.5458
x2 = 0.5006 | 0.5596
x2 = 0.5951 | 0.5789
x2 = 0.7004 | 0.6032
x2 = 0.8014 | 0.6338
x2 = 0.899 | 0.6799

CCOC(=O)C(=O)OCC + C1CCOC1
viscosity [mPa·s], 101 kPa
Details | x1 = 0.0955 | x1 = 0.2037 | x1 = 0.3007 | x1 = 0.4056 | x1 = 0.513 | x1 = 0.6056 | x1 = 0.7083 | x1 = 0.7994 | x1 = 0.9082
303.15 K | 0.506 | 0.591 | 0.683 | 0.795 | 0.916 | 1.03 | 1.173 | 1.298 | 1.472
313.15 K | 0.453 | 0.529 | 0.607 | 0.698 | 0.801 | 0.893 | 1.006 | 1.107 | 1.237
323.15 K | 0.414 | 0.479 | 0.544 | 0.619 | 0.701 | 0.782 | 0.872 | 0.954 | 1.057

CC(=O)OCC(C)C + Cc1ccccc1C
viscosity [mPa·s], 101 kPa
Details | x1 = 0.0918 | x1 = 0.1798 | x1 = 0.2716 | x1 = 0.3504 | x1 = 0.4528 | x1 = 0.5735 | x1 = 0.6718 | x1 = 0.7786 | x1 = 0.8691 | x1 = 0.9514
303.15 K | 0.694 | 0.688 | 0.681 | 0.675 | 0.667 | 0.659 | 0.653 | 0.648 | 0.644 | 0.641
313.15 K | 0.613 | 0.606 | 0.6 | 0.595 | 0.59 | 0.585 | 0.582 | 0.58 | 0.578 | 0.58
